Results on one compound are retold here after patent publication US7754911B2, “Method for isolating methyl glycine nitrile-N,N-diacetonitriles from an aqueous crude mixture” (BASF Aktiengesellschaft, priority 2005, dated 2010).

A short description of this data set: solubility of MGDN in water (temperature-dependent). It is filed as physicochemical. On the procedure: MGDN has highly temperature-dependent solubility in water. For instance, only about 0.5% by weight of MGDN dissolves at 10° C. in water or an aqueous ammonium sulfate solution. At approx. 60° C., the solubility is still about 5% by weight. Above approx. 60° C., an emulsion of MGDN and its aqueous solution with more than 5% by weight of dissolved MGDN is present. No phase diagram of the water-MGDN system is known.
The MGDN concentration of the aqueous crude product mixture is generally from 3 to 50% by weight, preferably from 15 to 40% by weight, more preferably from 20 to 35% by weight. A content of dissolved MGDN of 1% by weight corresponds to a crystallization temperature of approx. 20° C., a content of dissolved MCDN of 5% by weight to a crystallization temperature of approx. 55° C. At 10° C., the water solubility of MGDN is still about 0.5% by weight.

As for `CC(C#N)N(CC#N)CC#N` (centres unmarked) [MGDN, methylglycinenitrile-N,N-diacetonitrile], the water solubility result (at 10° C.) is “about 0.5 % by weight”. In addition, the solubility entry (at 10° C. in water or an aqueous ammonium sulfate solution) is “about 0.5 % by weight” and the solubility entry (at approx. 60° C., in water) is “about 5 % by weight”. In addition, the “content of dissolved MGDN” value by setting is: (corresponds to a crystallization temperature of approx. 20° C.) 1 % by weight; (corresponds to a crystallization temperature of approx. 55° C.) 5 % by weight.
